Tests used:
human orexin-2 receptor = human orexin-2 receptor (Homo sapiens (Human), UniProt O43614); experiment: hOX2R FLIPR Ca2+ flux assay; assay type: cell-based; conditions: CHO cells expressing the receptor; agonist 70 pM Ala-6,12 human orexin-A
Procedure: In a typical experiment the OX1 and OX2 receptor antagonistic activity of the compounds of the present invention was determined in accordance with the following experimental method. For intracellular calcium measurements, Chinese hamster ovary (CHO) cells expressing the rat orexin-1 receptor or the human orexin-2 receptor, are grown in Iscove's modified DMEM containing 2 mM L-glutamine, […], 1% hypoxanthine-thymidine supplement, 100 U/ml penicillin, 100 μg/ml streptomycin and 10% heat-inactivated fetal calf serum (FCS). The cells are seeded at 20,000 cells/well into Becton-Dickinson black 384-well clear bottom sterile plates coated with poly-D-lysine. All reagents were from GIBCO-Invitrogen Corp. The seeded plates are incubated overnight at 37° C. and 5% CO2. Ala-6,12 human orexin-A as the agonist is prepared as a 1 mM stock solution in 1% bovine serum albumin (BSA) and diluted in assay buffer (HBSS containing 20 mM HEPES, 0.1% BSA and 2.5 mM probenecid, pH7.4) for use in the assay at a final concentration of 70 pM. Test compounds are prepared as 10 mM stock solution in DMSO, then diluted in 384-well plates, first in DMSO, then assay buffer. On the day of the assay, cells are washed 3 times with 100 μl assay buffer and then incubated for 60 min (37° C., 5% CO2) in 60 μl assay buffer containing 1 μM Fluo-4AM ester, 0.02% pluronic acid, and 1% BSA. The dye loading solution is then aspirated and cells are washed 3 times with 100 μl assay buffer. 30 μl of that same buffer is left in each well. Within the Fluorescent Imaging Plate Reader (FLIPR, Molecular Devices), test compounds are added to the plate in a volume of 25 μl, incubated for 5 min and finally 25 μl of agonist is added. Fluorescence is measured for each well at 1 second intervals for 5 minutes and the height of each fluorescence peak is compared to the height of the fluorescence peak induced by 70 pM Ala-6,12 orexin-A with buffer in place of antagonist. […] Alternatively, compound potency can be assessed by a radioligand binding assay (described in Bergman et. al. Bioorg. Med. Chem. Lett. 2008, 18, 1425-1430) in which the inhibition constant (Ki) is determined in membranes prepared from CHO cells expressing either the OX1 or OX2 receptor. The intrinsic orexin receptor antagonist activity of a compound which may be used in the present invention may be determined by these assays.

hOX1R = hOX1R (Homo sapiens, UniProt O43613); experiment: hOX1R FLIPR Ca2+ flux assay; assay type: cell-based; conditions: CHO cells expressing the receptor; agonist 70 pM Ala-6,12 human orexin-A

Sequence of human orexin-2 receptor (O43614 whole entry): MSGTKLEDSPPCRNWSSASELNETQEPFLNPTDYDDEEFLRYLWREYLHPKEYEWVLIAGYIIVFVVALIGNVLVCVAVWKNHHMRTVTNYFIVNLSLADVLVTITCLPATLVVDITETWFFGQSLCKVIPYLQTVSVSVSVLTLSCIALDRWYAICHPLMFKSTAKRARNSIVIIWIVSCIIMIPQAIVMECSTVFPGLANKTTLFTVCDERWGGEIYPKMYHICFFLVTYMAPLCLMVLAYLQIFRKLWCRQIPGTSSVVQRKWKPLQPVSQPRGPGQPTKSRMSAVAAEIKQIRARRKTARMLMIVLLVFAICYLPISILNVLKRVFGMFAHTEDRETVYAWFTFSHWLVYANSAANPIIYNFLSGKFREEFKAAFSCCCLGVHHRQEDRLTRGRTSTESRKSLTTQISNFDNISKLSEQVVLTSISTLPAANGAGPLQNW

Row | Compound | IC50 (human orexin-2 receptor) [µM] | IC50 (hOX1R) [µM]
1 | CC(C)(O)c1cccc(N2CC[C@@H]3CCN(C(=O)c4ccccc4-n4nccn4)C[C@@H]32)c1 [Example C4, 2-{3-[(3aR, 7aR)-6-{[2-(2H-1,2,3-triazol-2-yl)phenyl]carbonyl}octahydro-1H-pyrrolo[2,3-c]pyridin-1-yl]phenyl}propan-2-ol] | 0.0486 | 10
2 | CC(C)(O)c1ccnc(N2CC[C@@H]3CCN(C(=O)c4ccccc4-n4nccn4)C[C@@H]32)c1 [Example C5, 2-{2-[(3aR, 7aR)-6-{[2-(2H-1,2,3-triazol-2-yl)phenyl]carbonyl}octahydro-1H-pyrrolo[2,3-c]pyridin-1-yl]pyridin-4-yl}propan-2-ol] | 0.125 | 10
3 | CC(C)(O)c1cnc(N2CC[C@@H]3CCN(C(=O)c4ccccc4-n4nccn4)C[C@@H]32)nc1 [Example C6, 2-{2-[(3aR, 7aR)-6-{[2-(2H-1,2,3-triazol-2-yl)phenyl]carbonyl}octahydro-1H-pyrrolo[2,3-c]pyridin-1-yl]pyrimidin-5-yl}propan-2-ol] | 1.83 | 10
4 | N#Cc1ccnc(N2CC[C@@H]3CCN(C(=O)c4cccnc4OCC(F)F)C[C@@H]32)c1 [Example D1, 2-((3aR,7aR)-6-(2-(2,2-difluoroethoxy)nicotinoyl)octahydro-1H-pyrrolo[2,3-c]pyridin-1-yl)isonicotinonitrile] | 0.147 | 10
5 | CCOc1ccccc1C(=O)N1CC[C@H]2CCN(c3cc(C#N)ccn3)[C@H]2C1 [Example E1, 2-((3aR,7aR)-6-(2-ethoxybenzol)octahydro-1H-pyrrolo[2,3-c]pyridin-1-yl)isonicotinonitrile] | 0.11 | 10
6 | CCCc1ccccc1C(=O)N1CC[C@H]2CCN(c3cc(C#N)ccn3)[C@H]2C1 [Example E2, 2-((3aR, 7aR)-6-(2-propylbenzoyl)octahydro-1H-pyrrolo[2,3-c]pyridin-1-yl)isonicotinonitrile] | 0.0594 | 10
7 | N#Cc1ccnc(N2CC[C@@H]3CCN(C(=O)c4ccccc4CC(F)(F)F)C[C@@H]32)c1 [Example E3, 2-((3aR, 7aR)-6-(2-(2,2,2-trifluoroethyl)benzoyl)octahydro-1H-pyrrolo[2,3-c]pyridin-1-yl)isonicotinonitrile] | 0.0481 | 10
8 | N#Cc1ccnc(N2CC[C@@H]3CCN(C(=O)c4ccc(F)cc4-n4nccn4)C[C@@H]32)c1 [Example E4, 2-((3aR, 7aR)-6-(4-fluoro-2(2H-1,2,3-triazol-2-yl)benzoyl)octahydro-1H-pyrrolo[2,3-c]pyridin-1-yl)isonicotinonitrile] | 0.0627 | ≥ 10
9 | N#Cc1ccnc(N2CC[C@@H]3CCN(C(=O)c4cccnc4-c4ccccc4)C[C@@H]32)c1 [Example E5, 2-((3aR, 7aR)-6-(2-phenylnicotinoyl)octahydro-1H-pyrrolo[2,3-c]pyridin-1-yl)isonicotinonitrile] | 0.0939 | 10
10 | CCOc1ncccc1C(=O)N1CC[C@H]2CCN(c3cc(C#N)ccn3)[C@H]2C1 [Example E6, 2-{(3aR, 7aR)-6-[(2-ethoxypyridin-3-yl)carbonyl]octahydro-1H-pyrrolo[2,3-c]pyridin-1-yl}pyridine-4-carbonitrile] | 1.15 | 10
11 | N#Cc1ccnc(N2CC[C@@H]3CCN(C(=O)c4cccnc4OCC(F)(F)F)C[C@@H]32)c1 [Example E7, 2-[(3aR, 7aR)-6-{[2-(2,2,2-trifluoroethoxy)pyridin-3-yl]carbonyl}octahydro-1H-pyrrolo[2,3-c]pyridin-1-yl]pyridine-4-carbonitrile] | 0.122 | 10
12 | N#Cc1ccnc(N2CC[C@@H]3CCN(C(=O)c4ccccc4CC(F)F)C[C@@H]32)c1 [Example E8, 2-[(3aR, 7aR)-6-{[2-(2,2-difluoroethyl)phenyl]carbonyl}octahydro-1H-pyrrolo[2,3-c]pyridin-1-yl]pyridine-4-carbonitrile] | 0.512 | 10
13 | N#Cc1ccnc(N2CC[C@@H]3CCN(C(=O)c4ccccc4OCC(F)(F)F)C[C@@H]32)c1 [Example E9, 2-[(3aR, 7aR)-6-{[2-(2,2,2-trifluoroethoxy)phenyl]carbonyl}octahydro-1H-pyrrolo[2,3-c]pyridin-1-yl]pyridine-4-carbonitrile] | 0.319 | ≥ 10
14 | N#Cc1ccnc(N2CC[C@@H]3CCN(C(=O)c4ccccc4OCC(F)F)C[C@@H]32)c1 [Example E10, 2-[(3aR, 7aR)-6-{[2-(2,2-difluoroethoxy)phenyl]carbonyl}octahydro-1H-pyrrolo[2,3-c]pyridin-1-yl]pyridine-4-carbonitrile] | 0.139 | 10
15 | N#Cc1ccnc(N2CC[C@@H]3CCN(C(=O)c4cccnc4CC(F)(F)F)C[C@@H]32)c1 [Example E11, 2-[(3aR, 7aR)-6-{[2-(2,2,2-trifluoroethyl)pyridin-3-yl]carbonyl}octahydro-1H-pyrrolo[2,3-c]pyridin-1-yl]pyridine-4-carbonitrile] | 2.11 | 10
16 | N#Cc1ccnc(N2CC[C@@H]3CCN(C(=O)c4ccccc4C4CC4)C[C@@H]32)c1 [Example E12, 2-{(3aR, 7aR)-6-[(2-cyclopropylphenyl)carbonyl]octahydro-1H-pyrrolo[2,3-c]pyridin-1-yl}pyridine-4-carbonitrile] | 0.0816 | 10
17 | COc1ccc(C(=O)N2CC[C@H]3CCN(c4cc(C#N)ccn4)[C@H]3C2)c(C2CC2)n1 [Example E13, 2-{(3aR, 7aR)-6-[(2-cyclopropyl-6-methoxypyridin-3-yl)carbonyl]octahydro-1H-pyrrolo[2,3-c]pyridin-1-yl}pyridine-4-carbonitrile] | 0.98 | 10
18 | N#Cc1ccnc(N2CC[C@@H]3CCN(C(=O)c4ccccc4-n4cccn4)C[C@@H]32)c1 [Example E14, 2-[(3aR, 7aR)-6-{[2-(1H-pyrazol-1-yl)phenyl]carbonyl}octahydro-1H-pyrrolo[2,3-c]pyridin-1-yl]pyridine-4-carbonitrile] | 0.256 | 10
19 | N#Cc1ccnc(N2CC[C@@H]3CCN(C(=O)c4ccccc4C4CCC4)C[C@@H]32)c1 [Example E15, 2-{(3aR, 7aR)-6-[(2-cyclobutylphenyl)carbonyl]octahydro-1H-pyrrolo[2,3-c]pyridin-1-yl}pyridine-4-carbonitrile] | 0.0311 | 9.72
20 | N#Cc1ccnc(N2CC[C@@H]3CCN(C(=O)c4ccccc4N4CCCC4)C[C@@H]32)c1 [Example E16, 2-{(3aR, 7aR)-6-[(2-pyrrolidin-1-ylphenyl)carbonyl]octahydro-1H-pyrrolo[2,3-c]pyridin-1-yl}pyridine-4-carbonitrile] | 0.0989 | 10
21 | N#Cc1ccnc(N2CC[C@@H]3CCN(C(=O)c4nccnc4N4CCCC4)C[C@@H]32)c1 [Example E17, 2-{(3aR, 7aR)-6-[(3-pyrrolidin-1-ylpyrazin-2-yl)carbonyl]octahydro-1H-pyrrolo[2,3-c]pyridin-1-yl}pyridine-4-carbonitrile] | 10 | 10
22 | N#Cc1ccnc(N2CC[C@@H]3CCN(C(=O)c4ncccc4-c4ccccc4)C[C@@H]32)c1 [Example E18, 2-{(3aR, 7aR)-6-[(3-phenylpyridin-2-yl)carbonyl]octahydro-1H-pyrrolo[2,3-c]pyridin-1-yl}pyridine-4-carbonitrile] | 0.0769 | ≥ 10
23 | CC(C)Oc1ncccc1C(=O)N1CC[C@H]2CCN(c3cc(C#N)ccn3)[C@H]2C1 [Example E19, 2-[(3aR, 7aR)-6-{[2-(1-methylethoxy)pyridin-3-yl]carbonyl}octahydro-1H-pyrrolo[2,3-c]pyridin-1-yl]pyridine-4-carbonitrile] | 1.4 | 10
24 | N#Cc1ccnc(N2CC[C@@H]3CCN(C(=O)c4ncccc4-n4nccn4)C[C@@H]32)c1 [Example E20, 2-[(3aR, 7aR)-6-{[3-(2H-1,2,3-triazol-2-yl)pyridin-2-yl]carbonyl}octahydro-1H-pyrrolo[2,3-c]pyridin-1-yl]pyridine-4-carbonitrile] | 1.5 | ≥ 10
25 | N#Cc1ccnc(N2CC[C@@H]3CCN(C(=O)c4ccccc4OC(F)F)C[C@@H]32)c1 [Example E21, 2-[(3aR, 7aR)-6-{[2-(difluoromethoxy)phenyl]carbonyl}octa-hydro-1H-pyrrolo[2,3-c]pyridin-1-yl]pyridine-4-carbonitrile] | 1.52 | 10

Source: patent US9938276B2, “6,5-bicyclic octahydropyrrolopyridine orexin receptor antagonists” (Merck Sharp & Dohme Corp., priority 2014, dated 2018)
